Data: PMC11959756, “PepH3-modified nanocarriers for delivery of therapeutics across the blood-brain barrier” (Fluids and Barriers of the CNS, 2025)

How the values were obtained:
[1] = tested on: primary rat brain endothelial cells (RBEC); test: Real-time impedance measurement of cellular toxicity on RBEC; format: cell-based; settings: Quasar 570 labelled PepH3 1.875-120 µM, 24 h; impedance at 10 kHz; n=6-12
Description: Kinetics of the effect of PepH3 peptide, PepH3-tagged and non-tagged NPs on RBEC cells was monitored by impedance measurement at 10 kHz (RTCA-SP instrument; ACEA Biosciences, USA). Impedance measurement is a label-free, real time, non- invasive method, and correlates linearly with adherence, growth, number, and viability of cells. For background measurements 50 µL cell culture medium was added to the wells, then cells were seeded at a density of 6 × 10^3 cells/well to collagen type IV (100 µg/mL) and fibronectin (25 µg/mL) coated 96-well plates with integrated gold electrodes (E-plate 96, ACEA Biosciences, USA). Cells were cultured for 4 days and monitored every 5 min until the end of experiments. At the beginning of plateau phase of growth, cells were treated with PepH3 (1.875-120 µM) and PepH3-tagged and non-tagged NPs (0.1-3.0 mg/mL) for 24 h. Cell index was defined as Rn-Rb at each time point of measurement, where Rn is the cell-electrode impedance of the well when it contains cells and Rb is the background impedance of the well with the medium alone.

[2] = tested on: primary rat brain endothelial cells (RBEC); test: Cellular uptake of PepH3 peptide in living RBECs (confocal microscopy, image analysis); format: cell-based; settings: Quasar 570 labelled PepH3 100 nM, 37 °C, confocal image analysis normalized to nuclear intensity, n=10-25
Description: To visualize the cellular uptake of PepH3 peptide alone, the cells were cultured in Matrigel coated glass bottom culture dishes (diameter: 3.5 cm, Greiner Bio-One, Germany). Confluent monolayers were incubated with the peptide solution (100 nM) diluted in the culture medium of RBEC at 37 °C for 30 min, 5–24 h. For the staining of cell nuclei, Hoechst 33342 dye (1 µg/mL, 10 min) was used. After incubation the culture medium was removed and cells were washed with Ringer-HEPES buffer (118 mM NaCl, 4.8 mM KCl, 2.5 mM CaCl2, 1.2 mM MgSO4, 5.5 mM D-glucose, 20 mM HEPES, pH 7.4) supplemented with 1% PDS. For visualization of PepH3, living cells was imaged using Leica TCS SP5 confocal laser scanning microscope (Leica Microsystems, Germany).

[3] = tested on: rat triple co-culture BBB model (RBEC, RPC, RAC); settings: 10 nM, 30 min
[4] = cited from earlier work
Text: There was a fast clearanc ...

## Q-AGILKRW-NH2 [PepH3, cationic 7-residue peptide (AGILKRW), BBB peptide shuttle derived from Dengue virus type-2 capsid protein; tested Quasar 570 labelled]
[1]
  Effect on impedance (viability) of RBEC cell layers: good cell viability
[2]
  Peptide internalization after 5 h compared to the 30 min group: 1.9 fold
  Peptide internalization after 24 h compared to the 30 min group: 6 fold
[3]
  Papp of PepH3 relative to transcellular BBB marker albumin (EBA): 71 times
[4]; biodistribution profile compared to FC5
  Accumulation in liver, lung and kidney in vivo: low accumulation
[4]; radiolabeled PepH3 peptide derivatives, biodistribution
  Brain uptake in vivo: high brain uptake
